Results as given in PMC3942691, “The Dipeptide Monoester Prodrugs of Floxuridine and Gemcitabine—Feasibility of Orally Administrable Nucleoside Analogs” (Pharmaceuticals, 2014).
Read-outs that look alike come from different tables or passages of the source. Marks after values point to notes of the source that are not given here.

Experiments:
AsPC-1 cells [1] = test: Cell proliferation assay (XTT) in AsPC-1 cells; type: cell-based; conditions: 24 h recovery
Protocol: (§1) Cell proliferation studies were conducted with Panc-1 and AsPC-1 cells. The cells were seeded into 96-well plates at 80,000 cells per well and allowed to attach/grow for 48 h before drug solutions were added. The culture medium (DMEM +10% fetal bovine serum or RPMI-1640 +10% fetal bovine serum) was removed and the cells were gently washed once with sterile pH 6.0 uptake buffer. Floxuridine, 5′-L-phenylalanyl-L-tyrosyl-floxuridine, gemcitabine and 5′-L-phenylalanyl-L-tyrosyl-gemcitabine were 2-fold serially diluted in pH 6.0 uptake buffer from 5 to 0.078 mmol/L. Buffer alone was used as a 100% viability control. The wash buffer was removed and 30 µL drug solution per well was added and incubated at 37 °C for 2 h in the cell incubator. After this time, the drug solutions were removed and the cells were again gently washed twice with sterile uptake buffer. The culture medium was then added to each well after washing. The cells were allowed to recover for 24 h before evaluating cell viability via 2,3-bis[2-methoxy-4-nitro-5-sulfophenyl]-2H-tetrazolium-5-carboxanilide inner salt (XTT) assays. A mixture (30 µL) containing XTT (1 mg/mL) in sterile RPMI-1640 without phenol red and phenazine methosulfate (N-methyldibenzopyrazine methyl sulfate in sterile PBS, 0.383 mg/mL) reagents were added to the cells and incubated at 37 °C for 1 h, after which the absorbance at 450 nm was read. The concentrations required to inhibit cell growth by 50% (GI50) were calculated using GraphPad Prism version 3.0 by nonlinear data fitting.

Panc-1 cells [2] = test: Uptake study in Panc-1 cells; type: cell-based; conditions: 0.1 mM, 1 h
Protocol: (§2) Caco-2, Panc-1, and AsPC-1 cells were grown on a 6-well plate for 18, 6, and 6 days, respectively. Wells were rinsed with MES (pH 6.0) buffer twice. Fresh MES buffer was reapplied to each well and incubated at 37 °C for 15 min. Each drug was individually tested from freshly prepared solutions in MES buffer (0.1 mM, total 0.3 mL) with the presence and the absence of 10 mM glycyl-proline (Gly-Pro). The solution was placed in each well and incubated at 37 °C for 60 min. Drug solution was removed and 3 mL of ice-cold PBS was immediately placed in each well. Each well was rinsed with 3 mL of cold-PBS twice and 0.5 mL of methanol/H2O (1:1) containing 0.1% TFA was placed in each well. The cell suspension was collected and transferred to a new tube. Those tubes were spun at 1,000 × g at 4 °C for 5 min. The supernatant was mixed with equal amount of water with either 0.1% formic acid or 0.1% ammonium hydroxide for LC-MS analysis. The cell pullets were used to determine protein amount with the Bio-Rad DC Protein Assay using bovine serum albumin as a standard.
(§3) The LC-MS analytical method of 5′-mono amino acid ester prodrugs of floxuridine has been reported previously. The LC-MS analysis of dipeptide monoester prodrugs of floxuridine and gemcitabine along with their parent drugs was modified and performed in a similar manner. Briefly, LC-MS analysis of the uptake drug amount was performed in triplicate on LCMS-2010EV (Shimadzu Scientific Instruments, Kyoto, Japan) equipped with an ESI (electrospray ionization) source. The Shimadzu LC-MS system consisting of Shimadzu LC-20AD pumps with DGU-20A in-line vacuum degasser units, and SIL-20A HT autosampler with an InertSustain C-18, 2.1 × 50 mm, 3 µm particle size, (GL Sciences, Torrance, CA, USA) was used for the separation and the effluent from the column was introduced directly to the ionization source. The system was controlled by Shimadzu LCMS solution software (version 3) to collect and process data. All samples were run with Solvent A and Solvent B with Solvent B gradient changing from 0%–90% at a rate of 13.8%/min over a 22 min run. The mobile phase consisted of 0.1% TFA/water (Solvent A) and 0.1% TFA/acetonitrile (Solvent B) for gemcitabine, gemcitabine prodrug and floxuridine prodrug. The mobile phase consisted of 0.1% ammonium hydroxide/water (Solvent A) and 0.1% ammonium hydroxide /acetonitrile (Solvent B) for floxuridine. The ESI probe was operated with a detector voltage of 1.5 kV, CDL temperature of 250 °C, heat block of 200 °C, and nebulizing gas flow of 1.2 mL/min in positive mode for gemcitabine prodrugs and their metabolites. The drying gas was N2 delivered at 0.1 MPa.

[3] = Chemical stability in 0.01 N HCl, SIF (pH 6.0) and pH 7.4 phosphate buffer; type: physicochemical
Protocol: The nonenzymatic hydrolysis of the prodrugs was determined as described above, except that each well contained pH 7.4 phosphate buffers (10 mmol/L) instead of cell homogenate.
The experiments concerning drug and their prodrug stability were performed at 37 °C in 0.01 N HCl, SIF (pH 6.0), and pH 7.4 phosphate buffer. […] Prodrug metabolites such as floxuridine, 5-fluorouracil (5-FU), gemcitabine, 2′-deoxy-2′,2′-difluorouridine, uracil, and cytosine were monitored along with prodrug disappearance in this experiment.

Panc-1 cells [4] = test: Cell proliferation assay (XTT) in Panc-1 cells; type: cell-based
Protocol: as §1

AsPC-1 cells [5] = test: Uptake study in AsPC-1 cells; type: cell-based; conditions: 0.1 mM, 1 h
Protocol: as §2
as §3, with “The mobile phase consisted of 0.1% TFA/water (Solvent A) and 0.1% TFA/acetonitrile (Solvent B) for gemcitabine, gemcitabine prodrug and floxuridine prodrug. The mobile phase consisted of 0.1% ammonium hydroxide/water (Solvent A) and 0.1% ammonium hydroxide /acetonitrile (Solvent B) for floxuridine. The ESI probe was operated with a detector voltage of 1.5 kV, CDL temperature of 250 °C, heat block of 200 °C, and nebulizing gas flow of 1.2 mL/min in positive mode for gemcitabine prodrugs and their metabolites. The drying gas was N2 delivered at 0.1 MPa.” left out

Caco-2 cells = test: Uptake study in Caco-2 cells; type: cell-based; conditions: 0.1 mM, 1 h
Protocol: as §2
as §3, with “The mobile phase consisted of 0.1% TFA/water (Solvent A) and 0.1% TFA/acetonitrile (Solvent B) for gemcitabine, gemcitabine prodrug and floxuridine prodrug. The mobile phase consisted of 0.1% ammonium hydroxide/water (Solvent A) and 0.1% ammonium hydroxide /acetonitrile (Solvent B) for floxuridine. The ESI probe was operated with a detector voltage of 1.5 kV, CDL temperature of 250 °C, heat block of 200 °C, and nebulizing gas flow of 1.2 mL/min in positive mode for gemcitabine prodrugs and their metabolites. The drying gas was N2 delivered at 0.1 MPa.” left out

AsPC-1 cell homogenates = conditions: cited from earlier work
Caco-2 cell homogenates = conditions: cited from earlier work
[6] = Homo sapiens, ASPC1, 2 h exposure
[7] = 0.01 N HCl, 37 °C, read-out: 0.01 N HCl t1/2
[8] = SIF pH 6.0, 37 °C, read-out: SIF pH 6.0 t1/2
[9] = pH 7.4 phosphate buffer, 37 °C, read-out: Buffer pH 7.4 t1/2
[10] = Homo sapiens, PANC-1, 2 h exposure, 24 h recovery, XTT

| Molecule | GI50 (AsPC-1 cells [1]; 2 h exposure) [mM] | Parent drug, share of uptake (Panc-1 cells [2]) [%] | 0.01 N HCl t1/2 ([3]; 0.01 N HCl, 37 °C) [h] | SIF pH 6.0 t1/2 ([3]; SIF pH 6.0, 37 °C) [min] | Buffer pH 7.4 t1/2 ([3]; pH 7.4 phosphate buffer, 37 °C) [min] | GI50 (Panc-1 cells [4]; tested 5 to 0.078 mmol/L) [mM] | Parent drug, share of uptake (AsPC-1 cells [5]) [%] | Parent drug, share of uptake (Caco-2 cells) [%] | GI50 (AsPC-1 cells [1]; [6]) [mM] | AsPC-1 cell homogenates t1/2 (AsPC-1 cell homogenates) | Prodrug, share of uptake (Panc-1 cells [2]) [%] | half-life [3, 7] [h] | half-life [3, 8] [h] | half-life [3, 9] [h] | GI50 (Panc-1 cells [4]; [10]) [mM] | Caco-2 cell homogenates t1/2 (Caco-2 cell homogenates) | Prodrug, share of uptake (AsPC-1 cells [5]) [%] | Prodrug, share of uptake (Caco-2 cells) [%] | uptake amount (Panc-1 cells [2]) | GI50 (Panc-1 cells [4]; Homo sapiens, PANC-1, tested 5 to 0.078 mmol/L) [mM] |
| --- | --- | --- | --- | --- | --- | --- | --- | --- | --- | --- | --- | --- | --- | --- | --- | --- | --- | --- | --- | --- |
| 2′,2′-difluoro-2′-deoxyuridine [Gemcitabine] | 10.2 ± 1.6 | 20 | >2 | >120 | >120 | > 5 | 90 | 95 | – | – | – | – | – | – | – | – | – | – | – | – |
| NC(Cc1ccccc1)C(=O)NC(Cc1ccc(O)cc1)C(=O)OCC1OC(n2cc(F)c(=O)[nH]c2=O)CC1O [5′-L-Phenylalanyl-L-tyrosyl-floxuridine] | – | – | – | – | – | – | – | – | 4.2 ± 0.1 | 59.7 ± 1.4 ^b min | 98 | > 2 | > 2 | > 2 | 3 ± 0.3 | 103.8 ± 55.5 ^b min | 60 | 45 | – | – |
| Nc1ccn(C2OC(COC(=O)C(Cc3ccc(O)cc3)NC(=O)C(N)Cc3ccccc3)C(O)C2(F)F)c(=O)n1 [5′-L-Phenylalanyl-L-tyrosyl-gemcitabine] | – | – | – | – | – | – | – | – | 5 ± 0.3 | – | 9 | > 2 | > 2 | 0.56 ± 0.0233 | 3.2 ± 0.7 | – | 39 | 6 | – | – |
| O=c1[nH]c(=O)n([C@H]2C[C@H](O)[C@@H](CO)O2)cc1F [Floxuridine, 5-fluoro-2′-deoxyuridine] | – | – | – | – | – | – | – | – | – | 6.4 ± 3.2 ^a min | – | > 2 | > 2 | > 2 | – | 14.3 ± 7.0 ^a min | – | – | not observed | > 5 |
